Results from patent publication US11192869B2, “CFTR regulators and methods of use thereof” (THE REGENTS OF THE UNIVERSITY OF CALIFORNIA, priority 2015, dated 2021).
“Also recorded” adds a separate entry of the source. Read-outs that look alike come from different tables or passages of the source. Where a SMILES comes first, the peptide text is derived from it. Bridges are numbered along the chain shown (N, C = ends).

Tests used:
human wild-type CFTR = biological target: T1, human wild-type CFTR (Homo sapiens, UniProt P13569); test: Short-circuit current in FRT cells expressing wild-type human CFTR; format: cell-based; conditions: for CFTR activation (in words): short-circuit current
T1 construct: expressed in transfected cells
Description: Short-circuit current measurement. Short-circuit current was measured in FRT cells stably expressing wild-type human CFTR cultured on porous filters as described. The basolateral solution contained 130 mM NaCl, 2.7 mM KCl, 1.5 mM KH2PO4, 1 mM CaCl2, 0.5 mM MgCl2, 10 mM glucose, and 10 mM Na-HEPES (pH 7.3, 37° C.). In the apical solution 65 mM NaCl was replaced by Na gluconate, and CaCl2 was increased to 2 mM, and the basolateral membrane was permeabilized with 250 μg/ml amphotericin B. Short-circuit current was measured in freshly harvested adult mouse colon at 37° C. using symmetrical Krebs-bicarbonate buffer.
Short-circuit current. Fischer rat thyroid (FRT) cells stably expressing wild-type human CFTR were cultured on Snapwell inserts (Corning Costar, Corning N.Y., USA) for short-circuit current (Isc) measurements. After 6-9 days in culture, when the transepithelial resistance was >1000 Ω/cm^2, the inserts were mounted in an Ussing chamber system (World Precision Instruments, Sarasota, Fla., USA). The basolateral solution contained 130 mM NaCl, 2.7 mM KCl, 1.5 mM KH2PO4, 1 mM CaCl2, 0.5 mM MgCl2, 10 mM glucose, and 10 mM Na-HEPES (pH 7.3). In the apical bathing solution, 65 mM NaCl was replaced by Na gluconate, and CaCl2 was increased to 2 mM. Both solutions were bubbled with air and maintained at 37° C. The basolateral membrane was permeabilized with 250 μg/ml amphotericin B (26, 27). Hemichambers were connected to a DVC-1000 voltage clamp via Ag/AgCl electrodes and 3 M KCl agar bridges for Isc recording.

ocular surface = test: Ocular surface potential difference measurements; format: in vivo, mouse; conditions: wild-type mice, 1-10 μM
Description: Ocular surface potential difference measurements. Open-circuit transepithelial PD were measured continuously in anesthetized mice in response to serial perfusions of different solutions over the ocular surface, as described (21). Mice were anesthetized with Avertin (2,2,2-tribromoethanol, 125 mg/kg intraperitoneal, Sigma-Aldrich, St. Louis, Mo., USA), and core temperature was maintained at 37° C. using a heating pad. Eyes were oriented with the cornea and conjunctiva facing upward and exposed by retracting the eyelid with cross-action forceps. Solutions were isosmolar (320±10 mOsM; compositions provided in ref. 21) and contained 10μ[…] □ indomethacin to prevent CFTR activation by prostaglandins. The ocular surface was perfused at 6 mL/min through plastic tubing using a multireservoir gravity pinch-valve system (ALA Scientific, Westbury, N.Y., USA) and variable-flow peristaltic pump (medium flow model; Fisher Scientific, Fair Lawn, N.J., USA). A probe catheter was fixed 1 mm above the cornea using a micropositioner and a suction cannula was positioned 3 mm from the orbit. The measuring electrode was in contact to the perfusion catheter and connected to a high-impedance voltmeter (IsoMilivolt Meter; WPI). The reference electrode was grounded via a winged 21-gauge needle filled with isosmolar saline, and inserted subcutaneously in the abdomen. Measuring and reference electrodes consisted of Ag/AgCl with 3 M KCl agar bridges.
Ocular surface potential difference measurements. Open-circuit transepithelial PD were measured continuously in anesthetized mice in response to serial perfusions of different solutions over the ocular surface, as described (21). Mice were anesthetized with Avertin (2,2,2-tribromoethanol, 125 mg/kg intraperitoneal, Sigma-Aldrich, St. Louis, Mo., USA), and core temperature was maintained at 37° C. using a heating pad. Eyes were oriented with the cornea and conjunctiva facing upward and exposed by retracting the eyelid with cross-action forceps. […]

tear secretion = test: Tear secretion (phenol red thread); format: in vivo, mouse; conditions: for increase of tear fluid secretion: single topical dose, for (at least) four hours
[1] = Ocular toxicity after chronic topical dosing (slit-lamp, lissamine green); format: in vivo; conditions: chronically treated mice
Description: (§1) Lissamine green staining. To assess corneal epithelial disruption, 5 μL of lissamine green (LG) dye (1%) was applied to the ocular surface of isofluorane-anesthetized mice. Photographs of the eye were taken using a Nikon Digital camera adapted to an Olympus Zoom Stereo Microscope (Olympus, Center Valley, Pa., USA). Each corneal quadrant was scored on a 3-point scale by one blinded, trained observer, with the extent of staining in each quadrant classified as: 0, no staining; 1, sporadic (involving <25% of the total surface) staining; grade 2, diffuse punctate staining (25-75%); and grade 3, coalesced punctate staining (>75%). The total grade is reported as the sum of scores from all four quadrants, ranging from 0 to 12.

[2] = system: mouse model of aqueous-deficient dry eye produced by lacrimal gland excision; test: Lacrimal gland excision (LGE) mouse model of dry eye; format: in vivo; conditions: 0.1 nmol topically three times daily
Description: Tear secretion. To measure unstimulated tear production, phenol red threads (Zone-Quick, Oasis Medical, Glendora, Calif., USA) were placed for 10 s in the lateral canthi of isofluorane-anesthetized mice using jewelers' forceps. Tear volume was measured as the length of thread wetting, as visualized under a dissecting microscope. Serial measurements were used to evaluate compound pharmacodynamics after application of 2-μL drops of compound formulations (50-100 μM compound in PBS containing 0.5% polysorbate and 0.5% DMSO) comparing to vehicle.
as §1
Mouse model of dry eye produced by lacrimal gland excision. […]

[3] = mouse, in vivo, topical or ocular
[4] = mouse, in vivo
[5] = Tear film pharmacokinetics by LC/MS; conditions: from quantity recovered vs EC50
[6] = juvenile rats; cited from earlier work
[7] = system: loperamide-induced mouse model of constipation; test: Loperamide-induced mouse model of constipation
[8] = cited from earlier work

T1 sequence (P13569 whole entry): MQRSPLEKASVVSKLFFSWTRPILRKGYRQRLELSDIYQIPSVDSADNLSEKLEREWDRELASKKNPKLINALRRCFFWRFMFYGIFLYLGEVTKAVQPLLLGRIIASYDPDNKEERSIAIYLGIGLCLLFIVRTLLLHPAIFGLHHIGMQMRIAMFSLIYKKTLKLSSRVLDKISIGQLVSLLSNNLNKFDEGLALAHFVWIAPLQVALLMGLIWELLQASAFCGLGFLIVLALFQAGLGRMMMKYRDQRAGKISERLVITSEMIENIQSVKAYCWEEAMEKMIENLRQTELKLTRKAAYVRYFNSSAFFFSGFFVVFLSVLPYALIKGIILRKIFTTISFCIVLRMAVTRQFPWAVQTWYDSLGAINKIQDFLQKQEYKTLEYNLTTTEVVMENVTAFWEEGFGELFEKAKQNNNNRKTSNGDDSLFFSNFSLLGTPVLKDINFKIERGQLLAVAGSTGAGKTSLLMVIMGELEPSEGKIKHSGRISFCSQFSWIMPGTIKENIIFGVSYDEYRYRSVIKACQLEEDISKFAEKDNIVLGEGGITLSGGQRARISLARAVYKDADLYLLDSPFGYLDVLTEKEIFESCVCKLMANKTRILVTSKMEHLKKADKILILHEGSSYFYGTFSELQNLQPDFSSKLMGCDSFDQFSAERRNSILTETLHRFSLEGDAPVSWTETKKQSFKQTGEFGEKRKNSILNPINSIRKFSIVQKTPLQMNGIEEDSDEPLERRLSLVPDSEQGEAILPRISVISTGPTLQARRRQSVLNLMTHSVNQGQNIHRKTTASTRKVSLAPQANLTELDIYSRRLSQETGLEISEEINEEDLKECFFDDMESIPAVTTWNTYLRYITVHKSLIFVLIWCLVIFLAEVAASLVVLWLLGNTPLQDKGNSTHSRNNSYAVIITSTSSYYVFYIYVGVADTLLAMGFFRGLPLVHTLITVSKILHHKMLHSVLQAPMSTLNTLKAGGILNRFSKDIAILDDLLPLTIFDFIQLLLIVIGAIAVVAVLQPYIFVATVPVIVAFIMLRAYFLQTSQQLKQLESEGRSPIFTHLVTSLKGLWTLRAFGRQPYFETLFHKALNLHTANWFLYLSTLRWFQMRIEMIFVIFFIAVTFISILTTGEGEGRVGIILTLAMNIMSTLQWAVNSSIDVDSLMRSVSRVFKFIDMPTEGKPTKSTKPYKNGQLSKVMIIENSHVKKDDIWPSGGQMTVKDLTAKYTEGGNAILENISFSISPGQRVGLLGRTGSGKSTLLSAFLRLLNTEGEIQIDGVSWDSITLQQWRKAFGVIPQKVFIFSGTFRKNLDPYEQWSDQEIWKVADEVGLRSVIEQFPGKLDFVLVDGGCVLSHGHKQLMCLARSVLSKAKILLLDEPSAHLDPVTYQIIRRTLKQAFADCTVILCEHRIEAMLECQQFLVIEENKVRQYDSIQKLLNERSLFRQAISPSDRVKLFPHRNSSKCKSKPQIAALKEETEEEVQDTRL

CCN(CC)c1nc(Nc2ccccc2)nc(OC(C(F)(F)F)C(F)(F)F)n1 [CFTRact-K089]
CFTR activation (human wild-type CFTR; Isc): ~50 % Vmax
CFTR activation (in words) (human wild-type CFTR; wild-type CFTR): fully activated CFTR
change in ocular surface PD (in words) (ocular surface): large hyperpolarizations
tear fluid secretion in CF mice (tear secretion; CF mice): no effect
increase of tear fluid secretion (tear secretion): doubled; also recorded: approximately two-fold
LG staining, corneal or conjunctival epithelial disruption [1]: no corneal or conjunctival epithelial disruption
ocular toxicity by slit-lamp evaluation [1]: no signs of ocular toxicity
corneal / ocular surface epithelial disruption after LGE [2]: prevents corneal epithelial disruption; also recorded: fully prevented; also recorded: prevented ocular surface epithelial disruption
tear secretion / tear volume after LGE [2]: restored tear secretion
tear film bioavailability (in words) [3]: sustained tear film bioavailability
systemic absorption (in words) [4]: without detectable systemic absorption
duration of therapeutic levels in tear fluid [5]: predicts therapeutic levels for at least six hours

CC(C)Cn1c(=O)n(C)c(=O)c2[nH]cnc21 [IBMX, 3-isobutyl-1-methylxanthine, reference compound]
persistence of tear secretion effect (tear secretion; after 2 hours): transient and undetectable after 2 hours

CC(C)(C)c1cc(C(C)(C)C)c(NC(=O)c2c[nH]c3ccccc3c2=O)cc1O [VX-770, reference compound]
CFTR activation (in words) (human wild-type CFTR; wild-type CFTR): relatively little activity; also recorded: relatively weak activity
Emax (human wild-type CFTR; wild-type CFTR, read-out: maximal activation of CFTR): 15%
change in ocular surface PD (in words) (ocular surface): minimal changes
increase of tear fluid secretion (tear secretion): little tear secretion
adverse finding on chronic application [6]: cataracts

Cn1c(=O)c(-c2cc([N+](=O)[O-])ccc2N)nc2ccccc21 [inactive chemical analog of CFTRact-J027, reference compound]
efficacy of inactive analog in wildtype mice ([7]; loperamide model, wildtype mice): nor was an inactive chemical analog of CFTRact-J027 effective

C[C@@H]1NC(=O)[C@@H]2CCCN2C(=O)[C@H](CC(N)=O)NC(=O)[C@@H]2CSSC[C@H](N)C(=O)N[C@H]3CSSC[C@H](NC1=O)C(=O)N[C@@H]([C@@H](C)O)C(=O)NCC(=O)N[C@H](C(=O)N[C@@H](Cc1ccc(O)cc1)C(=O)O)CSSC[C@H](NC(=O)[C@H](Cc1ccc(O)cc1)NC(=O)[C@H](CCC(=O)O)NC3=O)C(=O)N2 [linaclotide, reference compound] (H-CCEYCCNPACTGCY-OH; disulfide 1-6, 2-10, 5-13)
patients in whom effective ([8]; chronic constipation patients): ~20%
stool output, % of the maximal CFTRact-J027 response ([7]; oral 0.5 mg/kg, loperamide-treated mice): 35%

CCCCC(F)(F)[C@@]1(O)CC[C@H]2[C@@H](CC(=O)[C@@H]2CCCCCCC(=O)O)O1 [lubiprostone]
patients in whom effective ([8]; IBS-C patients): ~13%

cholera toxin [reference compound]
persistence of tear secretion effect (tear secretion; mouse, in vivo): transient and undetectable after 2 hours
